Where two headings read alike, the source gives them in different places.

The test system of one assay is intrapulmonary arteries. Kind of assay: Isometric contraction of intrapulmonary arteries induced by serotonin or endothelin. As for the experimental part:
Intrapulmonary arteries of the first order (IPA1) were divided into short tubular segments with an external diameter of 1.5-2 mm and used for isometric contraction measurement. Arterial rings were mounted in isolated organ bath systems, containing Krebs solution (containing 118.4 mM NaCl, 4.7 mM KCl, 1.2 mM MgSO4, 25 mM NaHCO3, 1.2 mM KH2PO4, 2.5 mM CaCl2) and 11.1 mM D-glucose, pH 7.4 adjusted with NaOH) at 37° C. and bubbled continuously with […]. An initial load of 0.8 to 1 g was applied to arterial rings. Tissues were allowed to equilibrate for 1 hour in Kreb's solution and washed out every 15 minutes. A high KCl solution (80 mM) was applied in order to obtain a reference contraction used to normalize subsequent contractile responses.
Contractile responses to different agonists were then tested by constructing a cumulative concentration-response curve (CCRC) to serotonin (5HT, 10^−4 to 10^−[…]) or endothelin (ET-1, 10^−7 to 10^−10 M). When indicated, AOL or AOX were preincubated during 30 minutes, and then CCRC to agonist was performed in the presence of the drug. High potassium solutions were obtained by substituting an equimolar amount of KCl for NaCl from Kreb's solution. Endothelial function was tested on each ring by examining the relaxation induced by 10 μM carbamylcholine on 0.3 μM Phe-induced preconstricted pulmonary arterial rings. Passive and active mechanical properties were assessed using transducer systems, coupled to IOX software (EMKA Technologies, Paris, France) in order to facilitate data acquisition and analysis.

In another assay the test system is H460 cells. Kind of assay: Oxygen consumption of resting carcinoma cells (oxygraphy). It is filed as cell-based, human. To be noted: 0 to 40 μM. As for the experimental part:
Human non-small cell carcinoma cell line H460 and A549 were obtained from ATCC. Cells were cultured in growth medium consisting of DMEM (GIBCO), 10% FBS (GIBCO) and 100 units of penicillin and 100 μg/mL streptomycin (GIBCO). The cells were maintained in either 75-cm^2 T-flasks or 175-cm^2 T-flasks (BD Biosciences) in an incubator (model 3100 series, Forma Scientific, Marietta, Ohio) controlled at 37° C., 95% humidity, and 5% CO2. Cell culture medium was refreshed every other day. Every 2 to 3 days, H460 and A549 cultures were detached from the flasks using a 0.25% trypsin solution (Gibco) and subcultured. All cultures were maintained at 80-90% confluence at the time of subculture.
The effects of AOX (0 to 40 μM) were assessed on carcinoma cells using the classical oxygraphic approach and compared to the effects of sister molecule AOL.
Oxygen consumption of H460 resting cells has been measured continuously and increasing concentrations of AOL and AOX (0 to 40 μM) have been injected to the preparation (FIG. 24).

Another assay deals with site IQ of complex I (Rattus norvegicus, UniProt A6K8N6+P03889+Q641Y2). Kind of assay: Mitochondrial ROS/H2O2 production (Amplex Red/HRP), glutamate+malate+succinate with ATR, no inhibitor. It is filed as biochemical. As for the experimental part:
Rates of ROS/H2O2 production from heart mitochondria were assessed through the oxidation of the colorless, non-fluorescent indicator Amplex Red in the presence of exogenous horseradish peroxidase (HRP, EC 1.11.1.7, Sigma). H2O2 reacts with Amplex Red in a 1:1 stoichiometry, yielding the fluorescent compound resorufin (excitation: 560 nm; emission: 585 nm) which is stable once formed. Fluorescence was measured continuously with a spectro-fluorometer equipped with temperature control and stirring (SAFAS Xenius, Monaco). Isolated mitochondria (0.1 mg/mL) were incubated in the same experimental buffer than previously, supplemented with 15 μM Amplex Red and 10 μg/mL HRP. Glutamate (5 mM)/malate (2.5 mM) together with succinate (5 mM) were used as complex I and complex II substrates, respectively. Experiments were conducted under non-phosphorylating conditions in the presence of 15 μM atractyloside, i.e., under state IV conditions where […]. Afterwards, rotenone (1.5 μM), antimycin A (2 μM), and myxothiazol (0.2 μM) were sequentially added to inhibit the redox centers within the electron transfer chain (FIG. 2), namely sites IQ, IF (with rotenone), IIIQi (with antimycin A) and IIIQO (with myxothiazol). Assay was finally calibrated with known amounts of H2O2 (steps of 300 nM), in the presence of all relevant compounds, including AOL. The control test of the absence of effect of AOL on the Amplex Red assay itself and NAD(P)H oxidase ROS/H2O2 production was carried out in the absence of cardiac mitochondria and the presence of NAD(P)H oxidase (EC 1.6.3.3, 5 mU/mL, Sigma) and NADH (100 μM) solutions.
Rates of ROS/H2O2 production from heart mitochondria were assessed through the oxidation of the colorless, non-fluorescent indicator Amplex Red in the presence of exogenous horseradish peroxidase (HRP, EC 1.11.1.7, Sigma). H2O2 reacts with Amplex Red in a 1:1 stoichiometry, yielding the fluorescent compound resorufin (excitation: 560 nm; emission: 585 nm) which is stable once formed. Fluorescence was measured continuously with a spectro-fluorometer equipped with temperature control and stirring (SAFAS Xenius, Monaco).
Isolated mitochondria (0.1 mg/mL) were incubated in the same experimental buffer than previously, supplemented with 15 μM Amplex Red and 10 μg/mL HRP. Glutamate (5 mM)/malate (2.5 mM) together with succinate (5 mM) were used as complex I and complex II substrates, respectively. Experiments were conducted under non-phosphorylating conditions in the presence of 15 μM atractyloside. Afterwards, rotenone (1.5 μM), antimycin A (2 μM), and myxothiazol (0.2 μM) were sequentially added to inhibit the redox centers within the electron transfer chain (see FIG. 2), namely sites IQ, IF (with rotenone), IIIQi (with antimycin A) and IIIQO (with myxothiazol). Assay was finally calibrated with known amounts of H2O2 (steps of 300 nM), in the presence of all relevant compounds, including AOX. The control test of the absence of effect of AOL, AOX and Oltipraz on the Amplex Red assay itself and NAD(P)H oxidase […] production was carried out in the absence of cardiac mitochondria and the presence of NAD(P)H oxidase (EC 1.6.3.3, 5 mU/mL, Sigma) and NADH (100 μM) solutions.

site IQ of complex I, sequence (A6K8N6 entry or part of it): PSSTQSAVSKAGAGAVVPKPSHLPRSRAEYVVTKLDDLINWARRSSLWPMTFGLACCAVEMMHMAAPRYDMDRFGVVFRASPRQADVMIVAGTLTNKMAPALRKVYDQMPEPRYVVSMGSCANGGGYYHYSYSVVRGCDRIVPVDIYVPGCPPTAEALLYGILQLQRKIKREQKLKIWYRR
site IQ of complex I, sequence (P03889 whole entry): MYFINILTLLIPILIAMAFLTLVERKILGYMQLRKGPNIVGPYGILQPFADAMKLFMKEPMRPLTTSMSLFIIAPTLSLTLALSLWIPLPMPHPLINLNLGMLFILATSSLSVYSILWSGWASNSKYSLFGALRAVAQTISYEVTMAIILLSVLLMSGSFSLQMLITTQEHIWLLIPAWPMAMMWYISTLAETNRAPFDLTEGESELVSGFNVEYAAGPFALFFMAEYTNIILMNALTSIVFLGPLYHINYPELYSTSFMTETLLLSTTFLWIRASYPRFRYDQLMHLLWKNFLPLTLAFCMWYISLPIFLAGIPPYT
site IQ of complex I, sequence (Q641Y2 34-463): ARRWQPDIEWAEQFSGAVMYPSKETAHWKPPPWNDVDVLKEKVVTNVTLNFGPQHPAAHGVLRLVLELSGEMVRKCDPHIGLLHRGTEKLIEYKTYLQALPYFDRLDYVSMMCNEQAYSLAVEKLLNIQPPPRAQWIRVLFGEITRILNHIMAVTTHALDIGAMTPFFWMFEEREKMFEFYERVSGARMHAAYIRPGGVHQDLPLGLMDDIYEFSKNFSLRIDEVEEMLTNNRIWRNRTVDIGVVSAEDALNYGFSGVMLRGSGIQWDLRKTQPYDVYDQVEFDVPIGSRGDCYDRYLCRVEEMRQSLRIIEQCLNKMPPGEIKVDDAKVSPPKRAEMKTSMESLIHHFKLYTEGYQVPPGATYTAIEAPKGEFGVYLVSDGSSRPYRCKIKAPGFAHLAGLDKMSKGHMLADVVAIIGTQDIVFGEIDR

Turning to `COc1ccc(-c2cc(=S)ss2)cc1` [AOL, 5-(4-methoxyphenyl)-3H-1,2-dithiole-3-thione], in the assay with intrapulmonary arteries (AOL preincubated 30 minutes), the endothelin-induced contractions entry is “no effect on endothelin-induced contractions” and the serotonin-induced contractions entry is on record as “could relax contractions induced with up to 5·10^−5 M of serotonin”. Moreover, the “rate of oxygen consumption by H460 cells” value with H460 cells was “no change in the rate of oxygen consumption”. In addition, on site IQ of complex I (AOL 5 to 80 μM, glutamate, malate, succinate, only ATR present), the “decrease of ROS/H2O2 production measured in the absence of inhibitor” value was “approximately 80%”.

By IC50 is commonly meant the point on the concentration scale where inhibition reaches its midpoint. As a reminder, the Hill coefficient is a measure of the steepness of the concentration-response curve. For `Oc1ccc(-c2cc(=S)ss2)cc1` [AOX, 5-(4-hydroxyphenyl)-3H-1,2-dithiole-3-thione], in the assay with intrapulmonary arteries (AOX at 10 μM), the “response of serotonin- and endothelin-induced contractions compared with AOL” value is “same pattern of response”. In addition, the serotonin-induced contractions result in the assay on intrapulmonary arteries (higher concentrations of AOX (above 10 μM)) was “contractions induced with 10^−4 M of serotonin could be relaxed”. Moreover, the “rate of oxygen consumption by H460 cells” value with H460 cells is recorded as “no change in the rate of oxygen consumption”. For the same compound, on site IQ of complex I (AOX 2.5 to 20 μM, glutamate, malate, succinate, ATR), the “lowest concentration showing an inhibitory effect on ROS production by site IQ” value stood at 2.5 µM. Further, the IC50 at site IQ of complex I (AOX 2.5 to 20 μM, glutamate, malate, succinate, ATR, read-out: estimated IC50 on ROS production by site IQ) was about 9.5 µM. Moreover, at site IQ of complex I (fit of FIG. 21), the Hill coefficient was determined as 2.616±0.5706, the “Maximum (fit parameter)” value worked out at 554.045±19.73 and the “Minimum (fit parameter)” value is −72.5272±68.64. Besides, the IC50 on site IQ of complex I (fit of FIG. 21, read-out: IC50 (fit parameter)) turned out to be 9.47 ± 1.02 µM.

The record behind these values is patent US11484529B2, “Desmethylanethole trithione derivatives for the treatment of diseases linked to mitochondrial reactive oxygen species (ROS) production” (OP2 Drugs, priority 2017, dated 2022).
